Experimental data from patent publication US9657015B2, “Substituted bicyclic dihydropyrimidinones and their use as inhibitors of neutrophil elastase activity” (Boehringer Ingelheim International GmbH, priority 2014, dated 2017).
In brackets after ≈: the same amount, converted by molar mass.

Key:
[1] = molecular target: Human neutrophil elastase (Homo sapiens (Human), UniProt P08246); assay: Human Neutrophil Elastase Assay; type: biochemical; details: substrate MeOSuc-Ala-Ala-Pro-Val-AMC 250 μM, pH 7.5, room temperature
[2] = molecular target: neutrophil elastase in human plasma (Homo sapiens (Human), UniProt P08246); assay: Neutrophil elastase inhibitory activity in human plasma; type: biochemical; details: human plasma assay (zymosan-stimulated blood plasma), substrate 250 μM, pH 7.5
[3] = Metabolic stability with human liver microsomes; type: in vitro ADME; details: pH 7.6; pooled human liver microsomes, 37° C., 1 μM test compound, 1 mg/ml microsomal protein, NADPH; read-out: t1/2 INVITRO
[4] = Metabolic stability with human hepatocytes; type: in vitro ADME; details: human hepatocyte suspension (typically cryopreserved), 1 μM test compound, six hours, scaled with well stirred model
Experimental: Assay for the Determination of Metabolic Stability with Human Hepatocytes
The metabolic degradation of the test compound is assayed in a human hepatocyte suspension. Human hepatocytes (typically cryopreserved) are incubated in an appropriate buffer system (e.g. Dulbecco's modified eagle medium plus 3.5 μg glucagon/500 mL, 2.5 mg insulin/500 mL and 3.75 mg/500 mL hydrocortison) containing 5% species serum. Following a (typically) 30 min preincubation in an incubator (37° C., 10% CO2), 5 μl of test compound solution (80 μM; from 2 mM stock solution in DMSO diluted 1:25 with medium) are added into 395 μl hepatocyte suspension (cell density in the range 0.25-5*10^6 cells/mL, typically 1*10^6 cells/mL; final concentration of test compound 1 μM, final DMSO concentration 0.05%). The cells are incubated for six hours (incubator, orbital shaker) and samples (25 μl) are taken at 0, 0.5, 1, 2, 4 and 6 hours. Samples are transferred into acetonitrile and pelleted by centrifugation (5 min) The supernatant is transferred to a new 96-deepwell plate, evaporated under nitrogen and resuspended. The decline of parent compound is analyzed by LC-MS/MS.
The intrinsic clearance CL_[…] is calculated as follows: CL_[…]=Dose/AUC=(C0/CD)/(AUD+clast/k)*1′000/60 (C0: initial concentration in the incubation [μM], CD: cell density of vital cells [10^6 cells/mL], AUD: area under the data [μM*h], clast: concentration of last data point [μM], k: slope of the regression line for parent decline [h^−1])
The calculated in vitro hepatic intrinsic clearance can be scaled up to the intrinsic in vivo hepatic clearance and used to predict hepatic in vivo blood clearance (CL) by the use of a liver model (well stirred model): CL_[…]_INVIVO [ml/min/kg]=(CL_[…] [μL/min/10^6 cells]*hepatocellularity [10^6 cells/g liver]*liver factor [g/kg bodyweight])/1′000 CL [ml/min/kg]=CL_[…]_INVIVO [ml/min/kg]*hepatic blood flow [ml/min/kg]/(CL_[…]_INVIVO [ml/min/kg]+hepatic blood flow [ml/min/kg]) Qh [%]=CL [ml/min/kg]/hepatic blood flow [ml/min/kg]) (Hepatocellularity, human: 120*10^6 cells/g liver; liver factor, human: 25.7 g/kg bodyweight; blood flow, human: 21 ml/(min*kg))

[5] = Drug transport across human Caco-2 cells; type: in vitro ADME; details: human, Caco-2 monolayers, pH 7.2, 37° C.; for Papp A→B at 10 µM: apical-to-basal, read-out: PEAB; for Papp B→A at 10 µM: basal-to-apical, read-out: PEBA
Source text: (§1) Assay for Determination of Drug Transport Across Human Caco-2 Cells
(§2) The assay provides information on the potential of a compound to pass the cell membrane, on the extent of oral absorption as well as on whether the compound is actively transported by uptake and/or efflux transporters. For the measurement of permeability across polarized, confluent human cancer colon carcinoma cells 2 (Caco-2) cell monolayers grown on permeable filter supports are used as the in vitro absorption model.
(§3) Apparent permeability coefficients (PE) of the compounds across the Caco-2 monolayers are measured (pH 7.2, 37° C.) in apical-to-basal (AB) (absorptive) and basal-to-apical (BA) (secretory) transport direction. AB permeability (PEAB) represents drug absorption from the intestine into the blood and BA permeability (PEBA) drug secretion from the blood back into the intestine via both passive permeability as well as active transport mechanisms mediated by efflux and uptake transporters that are expressed on the Caco-2 cells. The compounds are assigned to permeability/absorption classes by comparison of the AB permeabilities with the AB permeabilities of reference compounds with known in vitro permeability and oral absorption in the human. Identical or similar permeabilities in both transport directions indicate passive permeation, vectorial permeability points to additional active transport mechanisms. […] Active transport is concentration-dependently saturable.
(§4) Caco-2 cells (1-2*10^5 cells/cm^2 area) are seeded on filter inserts (Costar transwell polycarbonate or PET filters, 0.4 μm pore size) and cultured (DMEM) for 10 to 25 days. Compounds are dissolved in appropriate solvent (like DMSO, 1-20 mM stock solutions). Stock solutions are diluted with HTP-4 buffer (128.13 mM NaCl, 5.36 mM KCl, 1 mM MgSO4, 1.8 mM CaCl2, 4.17 mM NaHCO3, 1.19 mM Na2HPO4×7H2O, 0.41 mM NaH2PO4×H2O, 15 mM HEPES, 20 mM glucose, pH 7.2) to prepare the transport solutions (typically 10 μM compound, final DMSO<=0.5%). The transport solution (TL) is applied to the apical or basolateral donor side for measuring A-B or B-A permeability (3 filter replicates), respectively. The receiver side contains HTP-4 buffer supplemented with 2% BSA. Samples are collected at the start and end of experiment from the donor and at various time intervals for up to 2 hours also from the receiver side for concentration measurement by LC-MS/MS or scintillation counting. Sampled receiver volumes are replaced with fresh receiver solution.
(§5) The apparent permeability coefficients (PEAB and PEBA) of selected compounds in the Caco-2 drug transport assay described above are listed in Table 9.

[6] = Aqueous solubility (High Throughput Method); type: physicochemical; details: McIlvaine buffer pH 6.8, 2.5% DMSO, 24 h shaking; for solubility at 24 h: McIlvaine buffer pH 6.8 with 2.5% DMSO, aqueous buffer, kinetic from dmso stock
Experimental: Assay for Determination of Aqueous Solubility (“High Throughput Method”)
Starting from a 10 mM DMSO stock solution, aliquots are diluted with acetonitrile/water (1/1) and McIlvaine buffer pH 6.8, respectively. After 24 h of shaking, the solutions or suspensions are filtered and analyzed by LC-UV. The amount dissolved in buffer is compared to the amount dissolved in the acetonitrile/water (1/1) solution. Solubility is measured from 0.001 to 0.125 mg/ml at a DMSO concentration of 2.5%. If more than 90% of the compound is dissolved in buffer, the value is marked with “>”.

[7] = test system: Caco-2 cells; assay: Drug transport across human Caco-2 cells; type: in vitro ADME; details: Caco-2 monolayers, pH 7.2, 37° C.
Source text: as §1, §2, §3, §4, §5

[8] = Aqueous solubility (Shaked Flask Method); type: physicochemical; details: aqueous buffer, thermodynamic from solid, pH 6.8 (McIlvaine buffer)
Experimental: Assay for Determination of Aqueous Solubility (“Shaked Flask Method”)
Saturated solutions are prepared in well plates by adding an appropriate volume of selected aqueous media (typically in the range of 0.25-1.5 ml) into each well which contains a known quantity of solid drug substance (typically in the range 0.5-5.0 mg). The wells are shaken or stirred for a predefined time period (typically in a range of 2-24 h) and then filtered using appropriate filter membranes (typically PTFE-filters with 0.45 μm pore size). Filter absorption is avoided by discarding the first few drops of filtrate. The amount of dissolved drug substance is determined by UV spectroscopy or by HPLC with UV-detection. In addition, the pH of the aqueous saturated solution is measured using a glass-electrode pH meter.

neutrophil elastase in human plasma, sequence (P08246 30-247): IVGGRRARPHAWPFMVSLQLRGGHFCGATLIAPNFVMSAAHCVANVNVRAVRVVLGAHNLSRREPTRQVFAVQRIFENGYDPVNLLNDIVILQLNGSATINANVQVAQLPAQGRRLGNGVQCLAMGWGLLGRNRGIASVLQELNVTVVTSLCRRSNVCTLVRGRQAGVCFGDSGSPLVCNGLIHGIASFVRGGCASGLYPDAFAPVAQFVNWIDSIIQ
Human neutrophil elastase, sequence (P08246 30-247): as above

| IC50 [1] [nM] | IC50 [2] [nM] | half-life at 1 μM [3] [h] | CLhep predicted at 1 μM [4] [mL/min/kg] | Papp A→B at 10 µM [5] [×10⁻⁶ cm/s] | Papp B→A at 10 µM [5] [×10⁻⁶ cm/s] | solubility at 24 h [6] [µg/mL] | PEAB ([7]; apical-to-basal) [×10⁻⁶ cm/s] | PEBA ([7]; basal-to-apical) [×10⁻⁶ cm/s] | Aqueous solubility [6] [µg/mL] | solubility [8] [µg/mL] | Compound |
| --- | --- | --- | --- | --- | --- | --- | --- | --- | --- | --- | --- |
| < 1 | < 1 | > 2.17 | 2 | 20 | 97 | 61 (≈ 149 µM) | – | – | – | – | CN1C(=O)N(c2cccc(C(F)F)c2)C2=C(C(=O)NCC2)[C@H]1c1ccc(C#N)cc1 [Example 8A, (R)-4-(1-(3-(Difluoromethyl)phenyl)-3-methyl-2,5-dioxo-1,2,3,4,5,6,7,8-octahydropyrido[4,3-d]pyrimidin-4-yl)benzonitrile] |
| – | < 1 | > 2.17 | 3 | 11 | 85 | 60 (≈ 122 µM) | – | – | – | ≥ 10 | CN1C(=O)N(c2cccc(C(F)(F)F)c2)C2=C(C(=O)NCC2)[C@H]1c1ccc(C#N)cc1-c1cnco1 [Example 30A, 4-[(4R)-3-Methyl-2,5-dioxo-1-[3-(trifluoromethyl)phenyl]-1H,2H,3H,4H,5H,6H,7H,8H-pyrido[4,3-d]pyrimidin-4-yl]-3-(1,3-oxazol-5-yl)-benzonitrile] |
| < 1 | 2.3 | > 2.17 | – | 30 | 83 | 42 (≈ 80.7 µM) | – | – | – | ≥ 10 | CN1CCC2=C(C1=O)C(c1ccc(C#N)cc1-c1cnn(C)c1)N(C)C(=O)N2c1cccc(C(F)(F)F)c1 (centres unmarked) [Example 36, 4-{3,6-Dimethyl-2,5-dioxo-1-[3-(trifluoromethyl)phenyl]4H,2H,3H,4H,5H,6H,7H,8H-pyrido[4,3-d]pyrimidin-4-yl}-3-(1-methyl-1H-pyrazol-4-yl)benzonitrile] |

Further lines, the compound ahead of its results:

| Compound | IC50 [1] [nM] | IC50 [2] [nM] | half-life at 1 μM [3] [h] | CLhep predicted at 1 μM [4] [mL/min/kg] | Papp A→B at 10 µM [5] [×10⁻⁶ cm/s] | Papp B→A at 10 µM [5] [×10⁻⁶ cm/s] | solubility at 24 h [6] [µg/mL] | PEAB ([7]; apical-to-basal) [×10⁻⁶ cm/s] | PEBA ([7]; basal-to-apical) [×10⁻⁶ cm/s] | Aqueous solubility [6] [µg/mL] | solubility [8] [µg/mL] |
| --- | --- | --- | --- | --- | --- | --- | --- | --- | --- | --- | --- |
| CN1CCC2=C(C1=O)C(c1ccc(C#N)cc1-c1cncnc1)N(C)C(=O)N2c1cccc(C(F)(F)F)c1 (centres unmarked) [Example 36.3] | 1.1 | 1.4 | – | – | – | – | – | 12 | 110 | 76 | – |
| CN1CCC2=C(C1=O)C(c1ccc(C#N)cc1-c1cnco1)N(C)C(=O)N2c1cccc(C(F)(F)F)c1 (centres unmarked) [Example 37, 4-{3,6-Dimethyl-2,5-dioxo-1-[3-(trifluoromethyl)phenyl]-1H,2H,3H,4H,5H,6H,7H,8H-pyrido[4,3-d]pyrimidin-4-yl}-3-(1,3-oxazol-5-yl)benzonitrile] | < 1 | 1.1 | > 2.17 | – | 32 | 90 | 60 (≈ 118 µM) | – | – | – | ≥ 10 |
| CN1C(=O)N(c2cccc(C(F)(F)F)c2)C2=C(C(=O)NCC2)C1c1ccc(C#N)cc1-c1ccncn1 (centres unmarked) [Example 35, 4-{3-Methyl-2,5-dioxo-1-[3-(trifluoromethyl)phenyl]-1H,2H,3H,4H,5H,6H,7H,8H-pyrido[4,3-d]pyrimidin-4-yl}-3-(pyrimidin-4-yl)benzonitrile] | < 1 | < 1 | > 2.17 | 1 | 5.7 | 100 | 84 (≈ 167 µM) | – | – | – | – |
| CN1C(=O)N(c2cccc(C(F)(F)F)c2)C2=C(C(=O)NCC2)[C@H]1c1ccc(C#N)cc1CO [Example 32A, 3-(Hydroxymethyl)-4-[(4R)-3-methyl-2,5-dioxo-1-[3-(trifluoromethyl)phenyl]-1H,2H,3H,4H,5H,6H,7H,8H-pyrido[4,3-d]pyrimidin-4-yl]benzonitrile] | < 1 | < 1 | – | 3 | 6.9 | 61 | 19 (≈ 41.6 µM) | – | – | – | ≥ 10 |
| CN1C(=O)N(c2cccc(C(F)(F)F)c2)C2=C(C(=O)NCC2)C1c1ccc(C#N)cc1S(C)(=O)=O (centres unmarked) [Example 40, 3-Methanesulfonyl-4-{3-methyl-2,5-dioxo-1-[3-(trifluoromethyl)phenyl]-1H,2H,3H,4H,5H,6H,7H,8H-pyrido[4,3-d]pyrimidin-4-yl}benzonitrile] | < 1 | < 1 | > 2.17 | 1 | 17 | 87 | – | – | – | – | – |
